± gives the standard deviation of the averaged measurements.
System: G401
Assay: relative viability vs DMSO control (72 h) (fraction); higher = more viable cells
Procedure, shortened: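 Relative viability is percent growth read by ATPLite and averaged over up to triplicate wells. Sarcoma cells were seeded in 384-well plates to reach 80–90% confluence and given 2.5 µl of serially diluted compound after 24 h, from source plates of 10 mM to 0.0002 mM. Incubation lasted 72 h at 37 °C, 5% CO2, with 0.1% DMSO vehicle and a 5 µM positive control, and the data were rescaled so 1 equals full and 0 equals none.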

| Compound | relative viability (0.00017 µM) | relative viability (0.00051 µM) | relative viability (0.00152 µM) | relative viability (0.00457 µM) | relative viability (0.01372 µM) | relative viability (0.04115 µM) | relative viability (0.1235 µM) | relative viability (0.3704 µM) | relative viability (1.111 µM) | relative viability (3.333 µM) | relative viability (10 µM) |
| --- | --- | --- | --- | --- | --- | --- | --- | --- | --- | --- | --- |
| Cc1ccc(F)c(NC(=O)Nc2ccc(-c3cccc4[nH]nc(N)c34)cc2)c1 [Linifanib] | 1.03 ± 0.045 | 1.03 ± 0.087 | 0.996 ± 0.021 | 1.02 ± 0.02 | 1.01 ± 0.064 | 0.994 ± 0.01 | 0.956 ± 0.031 | 0.956 ± 0.048 | 0.928 ± 0.04 | 0.915 ± 0.013 | 0.9524 ± 0.0058 |
| CNC(=O)c1ccc(-c2cnc3ncc(Cc4ccc5ncccc5c4)n3n2)cc1F [Capmatinib] | 1.01 ± 0.023 | 0.988 ± 0.024 | 1.03 ± 0.027 | 1.04 ± 0.019 | 0.977 ± 0.03 | 1.01 ± 0.058 | 0.9706 ± 0.0066 | 1.02 ± 0.0027 | 0.981 ± 0.01 | 0.929 ± 0.012 | 0.877 ± 0.053 |
| CN1CCC(COc2cnc(-c3cccc(Cn4nc(-c5cccc(C#N)c5)ccc4=O)c3)nc2)CC1 [Tepotinib] | 1.02 ± 0.014 | 1.02 ± 0.015 | 1.012 ± 0.01 | 1.003 ± 0.0083 | 1.04 ± 0.018 | 1.04 ± 0.057 | 1.02 ± 0.013 | 1.01 ± 0.029 | 1 ± 0.015 | 0.9287 ± 0.0054 | 0.787 ± 0.02 |
| N#CC[C@H](C1CCCC1)n1cc(-c2ncnc3[nH]ccc23)cn1 [Ruxolitinib] | 0.971 ± 0.051 | 1.01 ± 0.037 | 1.01 ± 0.034 | 1 ± 0.026 | 1.02 ± 0.02 | 0.969 ± 0.039 | 0.99 ± 0.024 | 0.935 ± 0.047 | 0.942 ± 0.035 | 0.936 ± 0.025 | 0.824 ± 0.034 |
| CC(C)(C)c1cc(NC(=O)Nc2ccc(-c3cn4c(n3)sc3cc(OCCN5CCOCC5)ccc34)cc2)no1 [Quizartinib] | 1.02 ± 0.04 | 1.01 ± 0.017 | 1.05 ± 0.048 | 1.06 ± 0.026 | 1.04 ± 0.039 | 0.984 ± 0.052 | 1 ± 0.013 | 0.926 ± 0.011 | 0.971 ± 0.021 | 0.945 ± 0.051 | 0.87 ± 0.023 |
| COc1c(OCCCN2CCOCC2)ccc2c1N=C(NC(=O)c1cnc(N)nc1)N1CCN=C21 [Copanlisib] | 1.024 ± 0.0087 | 1 ± 0.024 | 0.959 ± 0.039 | 0.7934 ± 0.0059 | 0.702 ± 0.018 | 0.582 ± 0.033 | 0.537 ± 0.037 | 0.499 ± 0.043 | 0.476 ± 0.047 | 0.468 ± 0.02 | 0.477 ± 0.044 |
| Cc1ccc(NC(=O)c2ccc(CN3CCN(C)CC3)cc2)cc1Nc1nc(-c2cccnc2)cs1 [Masitinib] | 0.973 ± 0.058 | 0.9736 ± 0.0054 | 0.9669 ± 0.0091 | 0.9556 ± 0.0058 | 0.979 ± 0.026 | 0.971 ± 0.047 | 0.931 ± 0.024 | 0.843 ± 0.056 | 0.687 ± 0.0084 | 0.388 ± 0.014 | 0.0983 ± 0.005 |
| Cn1cc(-c2cc3c(N4CCN(c5ncc([C@@](C)(N)c6ccc(F)cc6)cn5)CC4)ncnn3c2)cn1 [Avapritinib] | 0.895 ± 0.086 | 0.91 ± 0.036 | 0.907 ± 0.046 | 0.901 ± 0.023 | 0.922 ± 0.059 | 0.926 ± 0.074 | 0.918 ± 0.032 | 0.842 ± 0.033 | 0.701 ± 0.044 | 0.627 ± 0.012 | 0.506 ± 0.011 |
| O=C(Cc1ccc(-c2ccc(OCCN3CCOCC3)cc2)cn1)NCc1ccccc1 [KX2-391] | 1.05 ± 0.047 | 1.05 ± 0.025 | 1.02 ± 0.033 | 1.05 ± 0.036 | 1.022 ± 0.0094 | 0.944 ± 0.027 | 0.555 ± 0.019 | 0.446 ± 0.013 | 0.421 ± 0.013 | 0.38 ± 0.014 | 0.368 ± 0.0095 |
| CO[C@H]1C[C@@H]2CC[C@@H](C)[C@@](O)(O2)C(=O)C(=O)N2CCCC[C@H]2C(=O)O[C@H]([C@H](C)C[C@@H]2CC[C@@H](OP(C)(C)=O)[C@H](OC)C2)CC(=O)[C@H](C)/C=C(\C)[C@@H](O)[C@@H](OC)C(=O)[C@H](C)C[C@H](C)/C=C/C=C/C=C/1C [Ridaforolimus] | 0.919 ± 0.043 | 0.885 ± 0.03 | 0.841 ± 0.071 | 0.793 ± 0.068 | 0.751 ± 0.07 | 0.739 ± 0.056 | 0.744 ± 0.027 | 0.725 ± 0.019 | 0.712 ± 0.012 | 0.681 ± 0.017 | 0.645 ± 0.022 |
| CCc1cc2c(cc1N1CCC(N3CCOCC3)CC1)C(C)(C)c1[nH]c3cc(C#N)ccc3c1C2=O [Alectinib] | 0.947 ± 0.037 | 0.983 ± 0.023 | 0.977 ± 0.028 | 0.991 ± 0.037 | 0.981 ± 0.026 | 0.954 ± 0.029 | 1.01 ± 0.031 | 1.01 ± 0.056 | 1.03 ± 0.057 | 0.991 ± 0.039 | 0.894 ± 0.037 |
| C[C@@H](c1ccc2nccn2c1)n1nnc2ncc(-c3cnn(C)c3)nc21 [Volitinib] | 1.01 ± 0.029 | 1.01 ± 0.042 | 1.03 ± 0.035 | 1.04 ± 0.044 | 1 ± 0.018 | 1.03 ± 0.019 | 1.03 ± 0.015 | 1.04 ± 0.046 | 1.03 ± 0.049 | 0.987 ± 0.026 | 0.955 ± 0.025 |
| CC1(C)CNc2cc(NC(=O)c3cccnc3NCc3ccncc3)ccc21 [Motesanib] | 0.984 ± 0.047 | 0.982 ± 0.042 | 0.973 ± 0.019 | 0.955 ± 0.03 | 0.979 ± 0.015 | 0.962 ± 0.022 | 0.949 ± 0.022 | 0.934 ± 0.036 | 0.9058 ± 0.0034 | 0.84 ± 0.034 | 0.684 ± 0.02 |
| CN1CCN(c2ccc3nc(-c4c(N)c5c(F)cccc5[nH]c4=O)[nH]c3c2)CC1 [Dovitinib] | 1.02 ± 0.045 | 1.014 ± 0.0059 | 1.04 ± 0.021 | 1.018 ± 0.0017 | 1 ± 0.023 | 1.01 ± 0.051 | 0.966 ± 0.034 | 0.92 ± 0.019 | 0.632 ± 0.069 | 0.256 ± 0.013 | 0.13 ± 0.0053 |
| CNC(=O)c1cc(Oc2ccc(NC(=O)Nc3ccc(Cl)c(C(F)(F)F)c3)c(F)c2)ccn1 [Regorafenib] | 1.05 ± 0.058 | 1.06 ± 0.077 | 1.09 ± 0.071 | 1.07 ± 0.025 | 1.07 ± 0.032 | 1.07 ± 0.071 | 1.02 ± 0.058 | 0.888 ± 0.088 | 0.821 ± 0.056 | 0.609 ± 0.062 | 0.431 ± 0.029 |
| Cc1nc(NC(=O)N2CCC[C@H]2C(N)=O)sc1-c1ccnc(C(C)(C)C(F)(F)F)c1 [Alpelisib] | 1 ± 0.066 | 1.01 ± 0.04 | 0.993 ± 0.041 | 0.946 ± 0.075 | 0.939 ± 0.017 | 0.906 ± 0.079 | 0.864 ± 0.021 | 0.777 ± 0.036 | 0.697 ± 0.07 | 0.577 ± 0.053 | 0.504 ± 0.052 |
| CCN1CCN(Cc2ccc(Nc3ncc(F)c(-c4cc(F)c5nc(C)n(C(C)C)c5c4)n3)nc2)CC1 [Abemaciclib] | 0.985 ± 0.03 | 0.964 ± 0.018 | 0.924 ± 0.048 | 0.922 ± 0.061 | 0.857 ± 0.051 | 0.822 ± 0.037 | 0.796 ± 0.044 | 0.786 ± 0.048 | 0.758 ± 0.017 | 0.746 ± 0.037 | 0.6941 ± 0.0055 |
| CC[C@H](Nc1ncnc2[nH]cnc12)c1nc2cccc(F)c2c(=O)n1-c1ccccc1 [Idelalisib] | 1.06 ± 0.034 | 1.07 ± 0.036 | 1.06 ± 0.051 | 1.05 ± 0.017 | 1.02 ± 0.032 | 0.998 ± 0.036 | 0.987 ± 0.042 | 0.965 ± 0.021 | 0.946 ± 0.013 | 0.877 ± 0.045 | 0.795 ± 0.023 |
| C=CC(=O)N1CCC[C@@H](n2nc(-c3ccc(Oc4ccccc4)cc3)c3c(N)ncnc32)C1 [Ibrutinib] | 1.03 ± 0.025 | 1.03 ± 0.095 | 1.03 ± 0.037 | 1.01 ± 0.0057 | 1.01 ± 0.025 | 1.05 ± 0.013 | 0.998 ± 0.072 | 0.995 ± 0.05 | 1.02 ± 0.013 | 0.922 ± 0.045 | 0.668 ± 0.049 |

Source: the supplement of paper PMC10883282
